# How the values were obtained:
# Format in all cases: physicochemical
# [1] = Partition coefficient, logP of the compound in water/PBS buffer at pH 7.4 at 25 degC after 20 mins by shake flask method
# [2] = Ionization constant, pKa of the compound
# [3] = Ionization constant, pKa of the compound in buffer at pH 1 to 13 by uV spectrophotometry
# [4] = Partition coefficient, logP of the compound in water/PBS buffer at 25 degC by OECD guidelines based method; details: octanol/water
# [5] = Distribution coefficient, logD of the compound in water/PBS buffer at pH 7.4 at 25 degC after 20 mins by shake flask method
smiles,measurement,setting,value
CN1CC[C@H](c2c(O)cc(O)c3c(=O)cc(-c4ccccc4Cl)oc23)[C@H](O)C1 [ALVOCIDIB],logD at 20 min,[1],0.21
same,pKa,[2],5.68
same,pKa,[3],5.56
same,logP,[4],1.01
same,logD at 20 min,[5],1.24
